Patent publication US20240270750A1, “IMIDAZOLE-CONTAINING INHIBITORS OF ALK2 KINASE” (BioCryst Pharmaceuticals, Inc., priority 2021, published 2024)

biological target: T1, ALK2 (Homo sapiens, UniProt Q04771); assay: LanthaScreen Eu Kinase Binding Assay, ALK2 inhibition; conditions: 1 micromolar concentration
T1 construct: purchased ThermoFisher Scientific (Life Technologies)
T1 sequence (Q04771 21-509): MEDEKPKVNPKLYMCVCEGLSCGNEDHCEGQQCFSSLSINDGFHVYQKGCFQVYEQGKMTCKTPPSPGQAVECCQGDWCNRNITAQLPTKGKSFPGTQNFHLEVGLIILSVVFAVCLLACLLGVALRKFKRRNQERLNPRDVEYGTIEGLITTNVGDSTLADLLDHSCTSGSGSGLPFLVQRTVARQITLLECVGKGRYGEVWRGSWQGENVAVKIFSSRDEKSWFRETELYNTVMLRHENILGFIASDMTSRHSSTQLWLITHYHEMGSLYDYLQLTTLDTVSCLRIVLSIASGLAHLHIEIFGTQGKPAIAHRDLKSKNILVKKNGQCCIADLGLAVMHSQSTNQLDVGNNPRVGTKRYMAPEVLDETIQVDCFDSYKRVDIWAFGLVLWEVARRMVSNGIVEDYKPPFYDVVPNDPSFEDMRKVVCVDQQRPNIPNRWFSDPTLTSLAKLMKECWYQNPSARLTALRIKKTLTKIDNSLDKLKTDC
Description: Biochemical assays to measure the inhibitory effects of the compounds were performed by ThermoFisher Scientific (Life Technologies). ALK2 inhibition was tested using LanthaScreen™ Eu Kinase Binding Assay screening protocol.

Row | SMILES | inhibition at 1 µM
1 | COc1cc(-n2cnc(Nc3nc(CC4CC4)nc4c3cnn4C(C)(C)C)c2)cc(OC)c1OC [Compound 119e, 1-(tert-butyl)-6-(cyclopropylmethyl)-N-(1-(3,4,5-trimethoxyphenyl)-1H-imidazol-4-yl)-1H-pyrazolo[3,4-d]pyrimidin-4-amine] | > 50%
2 | COc1cc(-n2cnc(Nc3nc(CC4CC4)nc4c3cnn4C34CC(C3)C4)c2)cc(OC)c1OC [Compound 123e, 1-(bicyclo[1.1.1]pentan-1-yl)-6-(cyclopropylmethyl)-N-(1-(3,4,5-trimethoxyphenyl)-1H-imidazol-4-yl)-1H-pyrazolo[3,4-d]pyrimidin-4-amine] | > 50%
3 | CCn1ncc2c(Nc3cn(-c4cc(OC)c(OC)c(OC)c4)cn3)nc(CC3CC3)nc21 [Compound 124e, 6-(cyclopropylmethyl)-1-ethyl-N-(1-(3,4,5-trimethoxyphenyl)-1H-imidazol-4-yl)-1H-pyrazolo[3,4-d]pyrimidin-4-amine] | > 50%
4 | COc1cc(-n2cnc(Nc3nc(CC4CC4)nc4c3cnn4C)c2)cc(OC)c1OC [Compound 125e, 6-(cyclopropylmethyl)-1-methyl-N-(1-(3,4,5-trimethoxyphenyl)-1H-imidazol-4-yl)-1H-pyrazolo[3,4-d]pyrimidin-4-amine] | > 50%
5 | COc1cc(-n2cnc(Nc3nc(CC4CC4)nc4c3cnn4CC(C)C)c2)cc(OC)c1OC [Compound 126e, 6-(cyclopropylmethyl)-1-isobutyl-N-(1-(3,4,5-trimethoxyphenyl)-1H-imidazol-4-yl)-1H-pyrazolo[3,4-d]pyrimidin-4-amine] | > 50%
6 | COc1cc(-n2cnc(Nc3nc(CC(C)C)nc4c3CCC4)c2)cc(OC)c1OC [Compound 127b, 2-isobutyl-N-(1-(3,4,5-trimethoxyphenyl)-1H-imidazol-4-yl)-6,7-dihydro-5H-cyclopenta[d]pyrimidin-4-amine] | > 50%

More lines, now with the values ahead:

Row | inhibition at 1 µM | SMILES
7 | > 50% | COc1cc(-n2cnc(Nc3nc(C4CC4)nc4c3cnn4C34CC(C3)C4)c2)cc(OC)c1OC [Compound 118f, 1-(bicyclo[1.1.1]pentan-1-yl)-6-cyclopropyl-N-(1-(3,4,5-trimethoxyphenyl)-1H-imidazol-4-yl)-1H-pyrazolo[3,4-d]pyrimidin-4-amine]
8 | > 50% | COc1cc(-n2cnc(Nc3nc(C4CC4)nc4c3cnn4CC3CC3)c2)cc(OC)c1OC [Compound 120f, 6-cyclopropyl-1-(cyclopropylmethyl)-N-(1-(3,4,5-trimethoxyphenyl)-1H-imidazol-4-yl)-1H-pyrazolo[3,4-d]pyrimidin-4-amine]
9 | > 50% | COc1cc(-n2cnc(Nc3nc(CC4CC4)nc4c3cnn4CC3CC3)c2)cc(OC)c1OC [Compound 121f, 1,6-bis(cyclopropylmethyl)-N-(1-(3,4,5-trimethoxyphenyl)-1H-imidazol-4-yl)-1H-pyrazolo[3,4-d]pyrimidin-4-amine]
10 | > 50% | COc1cc(-n2cnc(Nc3nc(CC4CC4)nc4c3cnn4C3CC3)c2)cc(OC)c1OC [Compound 122e, 1-cyclopropyl-6-(cyclopropylmethyl)-N-(1-(3,4,5-trimethoxyphenyl)-1H-imidazol-4-yl)-1H-pyrazolo[3,4-d]pyrimidin-4-amine]
